Measurements from patent publication EP4603105A1, “PHARMACEUTICAL COMPOSITION CONTAINING CYCLIC COMPOUND HAVING SELECTIVE KRAS INHIBITORY EFFECT AGAINST HRAS AND NRAS” (CHUGAI SEIYAKU KABUSHIKI KAISHA, priority 2022, dated 2024).
*1 amine or outer side, *2 acyl side, *3 side chain or, on linkers, in order; H or OH if unused. Where a SMILES comes first, the peptide text is derived from it. Bridges are numbered along the chain shown (N, C = ends). [ ]: non-standard residue; d: D form. The star is where a group is joined. hPhe(3-Cl-4-CF3) = N[C@@H](CCc1ccc(C(F)(F)F)c(Cl)c1)C(=O)O; X18 = CCCCN([C@@H](Cc1ccc(C(F)(F)F)cc1)C(=O)[*:2])[*:1]; NPrPhe(4-CF3) = CCCN[C@@H](Cc1ccc(C(F)(F)F)cc1)C(=O)O; NMeGly(cPent) = CN[C@H](C(=O)O)C1CCCC1; Gly(cPent) = N[C@H](C(=O)O)C1CCCC1; NMeD = CN[C@@H](CC(=O)O)C(=O)O; NMeL = CN[C@@H](CC(C)C)C(=O)O; X10 = N#CCN(CC(=O)[*:2])[*:1]; Morpholide = C1CN(*)CCO1; Ac5c = NC1(C(=O)O)CCCC1; NEtG = CCNCC(=O)O; Sar = CNCC(=O)O

Assays:
[1] = target: GDP-bound NRAS wild-type protein (Homo sapiens, UniProt P01111); experiment: Binding to NRAS by surface plasmon resonance (SPR), KD and KD ratio to KRAS
GDP-bound NRAS wild-type protein, sequence (P01111 whole entry): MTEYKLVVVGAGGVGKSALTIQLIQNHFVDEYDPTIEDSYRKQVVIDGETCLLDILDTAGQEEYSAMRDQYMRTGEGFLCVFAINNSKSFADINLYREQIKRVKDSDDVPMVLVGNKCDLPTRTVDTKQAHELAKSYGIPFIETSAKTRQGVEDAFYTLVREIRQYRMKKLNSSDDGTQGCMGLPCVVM
Outline: (§1)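 Captured GDP-RAS (~100–300 RU) was exposed to increasing compound concentrations, 75 s per step, in running buffer with 10 µM GDP, 10 mM MgCl2 and 4% DMSO at pH 7.4.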

HRAS wild-type protein = HRAS wild-type protein (Homo sapiens, UniProt P01112); experiment: Binding to HRAS by surface plasmon resonance (SPR), KD and KD ratio to KRAS
HRAS wild-type protein, sequence (P01112 whole entry): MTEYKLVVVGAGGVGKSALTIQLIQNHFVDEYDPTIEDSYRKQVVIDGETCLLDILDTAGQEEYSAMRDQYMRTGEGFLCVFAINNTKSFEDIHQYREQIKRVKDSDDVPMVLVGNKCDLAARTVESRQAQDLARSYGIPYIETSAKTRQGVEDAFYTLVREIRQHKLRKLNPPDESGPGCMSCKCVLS
Outline: as §1

[2] = test system: human lung cancer strain NCI-H441; type: cell-based
Outline: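 Step one: dispense the test compound in serial DMSO dilutions. Step three: add the reagent and measure […].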

[3] = ratio of KD for GDP-bound NRAS wild-type protein to KD for KRAS
[4] = ratio of KD for HRAS wild-type protein to KD for KRAS
[5] = ratio of KD value for GDP-bound NRAS wild-type protein to KD value for KRAS (SPR)
[6] = ratio of KD value for HRAS wild-type protein to KD value for KRAS (SPR)

Structure (SMILES)	NRAS /KRAS [1, 3]	HRAS /KRAS (HRAS wild-type protein; [4])	IC50 [2]	NRAS /KRAS [1, 5]	HRAS /KRAS (HRAS wild-type protein; [6])
CCCN1C(=O)CN(C)C(=O)CN(CC#N)C(=O)[C@H]([C@@H](C)CC)NC(=O)[C@H](CC(C)C)N(C)C(=O)C[C@@H](C(=O)N2CCOCC2)N(C)C(=O)[C@H](C2CCCC2)N(C)C(=O)C2(CCCC2)NC(=O)[C@@H]2CCCN2C(=O)[C@H](CCc2ccc(C(F)(F)F)c(Cl)c2)NC(=O)CN(C)C(=O)[C@@H]1Cc1ccc(C(F)(F)F)cc1 [PP0254] ([NMeL]I[X10][Sar][NPrPhe(4-CF3)][Sar][hPhe(3-Cl-4-CF3)]P[Ac5c][NMeGly(cPent)][NMeD]-Morpholide; lactam N-11)	B (a compound having 3 or more and less than 10 is denoted as B)	C (A compound having a KD ratio of 0.1 or more and less than 3 is denoted as C)	5.6 nM	–	–
CCO[C@@H]1C[C@H]2C(=O)NC3(CCC3)C(=O)N(C)[C@@H](C3CCCC3)C(=O)N(C)[C@H](C(=O)N(C)C)CC(=O)N(C)[C@@H](CC)C(=O)N[C@@H]([C@@H](C)CC)C(=O)N(C)CC(=O)N(C)[C@H]3C/C=C\CCN(C3=O)[C@@H](Cc3ccc(C(F)(F)F)cc3)C(=O)N(C)CC(=O)N[C@@H](CCc3cc(C)c(Cl)c(C)c3)C(=O)N2C1 [PP1821]	–	–	105 nM	A (a compound having 10 or more and less than 20 is denoted as A)	A (a compound having 10 or more and less than 20 is denoted as A)
CCO[C@@H]1C[C@H]2C(=O)NC3(CC(F)(F)C3)C(=O)N(C)[C@@H](C3CCCC3)C(=O)N(C)[C@H](CC)CC(=O)N(C)[C@@H](CC)C(=O)N[C@@H]([C@@H](C)CC)C(=O)N(C)CC(=O)N(C)[C@H]3C/C=C\CCN(C3=O)[C@@H](Cc3ccc(C(F)(F)F)cc3)C(=O)N(C)CC(=O)N[C@@H](CCc3cc(F)c(C(F)(F)F)c(F)c3)C(=O)N2C1 [PP1627]	–	–	22.9 nM	A (a compound having 10 or more and less than 20 is denoted as A)	A (a compound having 10 or more and less than 20 is denoted as A)
CCCN1C(=O)CN(C)C(=O)CN(CC)C(=O)[C@H](C2CCCC2)NC(=O)[C@H](CC(C)C)N(C)C(=O)C[C@@H](C(=O)N2CCOCC2)N(C)C(=O)[C@H](C2CCCC2)N(C)C(=O)C2(CCCC2)NC(=O)[C@@H]2CCCN2C(=O)[C@H](CCc2ccc(C(F)(F)F)c(Cl)c2)NC(=O)CN(C)C(=O)[C@@H]1Cc1ccc(C(F)(F)F)cc1 [PP0293] ([NMeL][Gly(cPent)][NEtG][Sar][NPrPhe(4-CF3)][Sar][hPhe(3-Cl-4-CF3)]P[Ac5c][NMeGly(cPent)][NMeD]-Morpholide; lactam N-11)	B (a compound having 3 or more and less than 10 is denoted as B)	C (A compound having a KD ratio of 0.1 or more and less than 3 is denoted as C)	37.6 nM	–	–
CCCCN1C(=O)CN(C)C(=O)CN(C)C(=O)[C@H]([C@@H](C)CC)NC(=O)[C@H](CC(C)C)N(C)C(=O)C[C@@H](C(=O)N2CCOCC2)N(C)C(=O)[C@H](C2CCCC2)N(C)C(=O)C2(CCCC2)NC(=O)[C@@H]2CCCN2C(=O)[C@H](CCc2ccc(C(F)(F)F)c(Cl)c2)NC(=O)CN(C)C(=O)[C@@H]1Cc1ccc(C(F)(F)F)cc1 [PP0120] ([NMeL]I[Sar][Sar][X18][Sar][hPhe(3-Cl-4-CF3)]P[Ac5c][NMeGly(cPent)][NMeD]-Morpholide; lactam N-11)	B (a compound having 3 or more and less than 10 is denoted as B)	C (A compound having a KD ratio of 0.1 or more and less than 3 is denoted as C)	5.6 nM	–	–
CCO[C@@H]1C[C@H]2C(=O)NC3(CC(C)(C)C3)C(=O)N(C)[C@@H](C3CCCC3)C(=O)N(C)[C@H](C(=O)N(C)C)CC(=O)N(C)[C@@H](CC)C(=O)N[C@@H]([C@@H](C)CC)C(=O)N(C)CC(=O)N(C)[C@H]3C/C=C\CCN(C3=O)[C@@H](Cc3ccc(C(F)(F)F)cc3)C(=O)N(C)CC(=O)N[C@@H](CCc3ccc(C(F)(F)F)c(Cl)c3)C(=O)N2C1 [PP1746]	–	–	1.9 nM	A (a compound having 10 or more and less than 20 is denoted as A)	A (a compound having 10 or more and less than 20 is denoted as A)
